Measurements taken from patent US20240309015A1, “Methods for the Treatment of Fibrotic Disease” (SHY Therapeutics, LLC, priority 2021, published 2024).

Key:
KRas G12D mutant = experiment: Ras GTP Binding Domain Inhibition Assay, KRas G12D mutant; conditions: at 20 μM; for KRas G12D mutant + SOS: % inh.: with SOS; for KRas G12D mutant: % inh.: without SOS
Summary of the method: (§1)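 Compounds were tested at 20 μM final, or as dilution series for IC50, against nickel-plate-captured His-tagged GTPase proteins for 3 h at room temperature. Sos exchange factor could be present for the last hour. Labelled GTP (100 nM Cy3 or Cy5) was then bound for 45 min, wells were washed, and retained fluorescence was measured.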

[1] = Assessment of plasma exposure in DBA/2J mice; format: in vivo, mouse; conditions: Group 4: 100 mg/kg PO, Vehicle 2 (Solubilized Lipid)
Rho-A = experiment: Ras GTP Binding Domain Inhibition Assay, Rho-A; conditions: at 20 μM; for Rho-A: % inh.: without SOS
Summary of the method: as §1

[2] = Observation for overt toxicity in DBA/2J mice; format: in vivo; conditions: male DBA/2J mice, single dose, 100 mg/kg IP
Procedure: Experimental Design: Compound 9 was suspended in 0.5% Hydroxypropyl Methylcellulose (HPMC)/0.1% Tween® 80 to a final concentration of 10 mg/mL. The dosing solutions were prepared prior to the start of the test. Male DBA/2J mice (Jackson Stock No: 000671) were housed in solid bottom cages with standard chow and water ad libitum. Dosing was initiated when animals were 7-8 weeks old. Mice were dosed at a volume of 10 mL/kg by intraperitoneal (IP) injection at 100 mg/kg or vehicle. […] Blood was collected at 15 min, 30 min, 1 h, 2 h, 4 h, 7 h, 16 h, 24 h by cardiac puncture, mixed gently 8 times and put on ice until centrifuged within 30 minutes of collection. The plasma was transferred to a 96-well plate for analysis of test compound levels.

serum albumin = experiment: Albumin western blot of D2-mdx mouse tissues; format: in vivo; conditions: D2-mdx mice, 100 mg/kg IP daily for 3 days
From the text: (§2) The experiment described herein was designed to monitor the effects of Compound 9 on two biomarkers related to fibrosis in D2-mdx mice. The first biomarker is Smad2 phosphorylation, and the second is the levels of serum albumin in the different muscle tissues. Fibrosis causes disruption of the fine transparent tubular sheath which envelops the fibers of skeletal muscles, this can result in various molecules from the blood and interstitial fluid leaking into myofibres. A classic example is serum albumin, which can be identified in tissue sections and considered to be hallmark of myofibre permeability.
(§3) Experimental Design: Compound 9 was suspended in 0.5% Hydroxypropyl Methylcellulose (HPMC)/0.1% Tween® 80 to a final concentration of 10 mg/mL. […]
(§4) Tissue protein extraction: Frozen tissues were placed on ice in prechilled tubes with 30 μL/mg with of ice-cold RIPA buffer+Halt™ Protease & Phosphatase Inhibitor Cocktail. […] Supernatant was removed and protein concentration determined by BCA assay.
(§5) Western blot protocol: Equal amounts of protein (15-50 μg) were separated by SDS-PAGE and transferred to nitrocellulose membranes (Invitrogen by Thermo Fisher Scientific). […] Membranes were blocked with 10% milk and albumin levels were assessed by incubating overnight at 4° C. with albumin antibody (Cell Signaling Technology #4929). […]

KRas wild type = experiment: Ras GTP Binding Domain Inhibition Assay, KRas wild type; conditions: at 20 μM; for KRas wild type + SOS: % inh.: with SOS; for KRas wild type: % inh.: without SOS
Summary of the method: as §1

[3] = Observation for overt toxicity in D2-mdx mice; format: in vivo; conditions: male D2-mdx mice, 100 mg/kg IP daily for 3 days
Procedure: Experimental Design: Compound 9 was suspended in 0.5% Hydroxypropyl Methylcellulose (HPMC)/0.1% Tween® 80 to a final concentration of 10 mg/mL. The dosing solutions were prepared prior to the start of the test and were stored in the dark and maintained in frozen aliquots. Doses were thawed prior to administration. Male D2-mdx (JAX Stock No: 013141) mice were sourced from The Jackson Laboratory and housed in solid bottom cages with standard chow and water ad libitum. Dosing was initiated when animals were −3 weeks old. Animals were dosed daily by intraperitoneal (IP) injection at 100 mg/kg or vehicle for 3 days. […] Mice were sacrificed by CO2 euthanasia approximately 6 hours after their day 3 dosing. Heart, diaphragm, quadriceps, tibialis anterior (TA) samples were collected at termination on day 3 and snap frozen. These samples were shipped on dry ice for analysis, and were stored at −80° C.

Smad2 phosphorylation = experiment: Phospho-Smad2 western blot of D2-mdx mouse tissues; format: in vivo; conditions: 100 mg/kg IP daily for 3 days
From the text: as §2, §3, §4, §5

KRas G12C mutant = experiment: Ras GTP Binding Domain Inhibition Assay, KRas G12C mutant; conditions: at 20 μM; for KRas G12C mutant + SOS: % inh.: with SOS; for KRas G12C mutant: % inh.: without SOS
Summary of the method: as §1

IL-6 = experiment: Mouse IL6 Quantification Assay (LPS-stimulated RAW 264.7); format: cell-based; set-up: dose or concentration left out as unconfirmed; conditions: RAW264.7, ELISA, read-out: IL-6: % inh.
TNFα = experiment: Mouse TNF Alpha Quantification Assay (LPS-stimulated RAW 264.7); format: cell-based; set-up: dose or concentration left out as unconfirmed; conditions: RAW264.7, ELISA, read-out: TNFα: % inh.
Smad2/3 phosphorylation = experiment: Phospho-Smad2/3 Inhibition Assay in PANC-1; format: cell-based; conditions: Homo sapiens; 10 μM compound, 3 h; TGF-b1 stimulated PANC-1; western blot; read-out: % inh of Smad2/3 phosphorylation in PANC-1
Summary of the method: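 Serum-starved cells (0.5% FBS overnight) pretreated 3 h at 37 °C with compound at 10 μM or serial dilutions for IC50, in 0.3% DMSO. TGF-b1 10 ng/ml stimulation: 1 h for Panc-1 (human), 20 min for C2C12 (mouse). Phospho-Smad2 (Ser465/467) and phospho-Smad3 (Ser423/425) measured by western blot of lysates.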

Row | Compound | KRas G12D mutant + SOS: % inh. (KRas G12D mutant; Table 7) | KRas G12D mutant + SOS: % inh. (KRas G12D mutant; Table 8) | KRas G12D mutant: % inh. (KRas G12D mutant; Table 7) | KRas G12D mutant: % inh. (KRas G12D mutant; Table 8) | Tmax [1] | Rho-A + SOS: % inh. (Rho-A; with SOS) | Rho-A: % inh. (Rho-A) | findings of overt toxicity [2] | serum albumin levels in the heart (serum albumin) | serum albumin levels in the tibialis anterior and quadricep muscles (serum albumin) | KRas wild type + SOS: % inh. (KRas wild type) | KRas wild type: % inh. (KRas wild type) | findings of overt toxicity [3] | Smad2 phosphorylation in the diaphragm compared to control vehicle mice (Smad2 phosphorylation) | Smad2 phosphorylation in the heart (Smad2 phosphorylation; D2-mdx mice) | KRas G12C mutant + SOS: % inh. (KRas G12C mutant) | KRas G12C mutant: % inh. (KRas G12C mutant) | inhibition (IL-6) | inhibition (TNFα) | inhibition at 10 µM (Smad2/3 phosphorylation)
1 | COCCNc1nc(-c2nccn2C)nc2sc(-c3cccc(OC)c3Cl)c(-c3ccccc3)c12 [Compound 9, 6-(2-Chloro-3-methoxyphenyl)-N-(2-methoxyethyl)-2-(1-methyl-1H-imidazol-2-yl)-5-phenylthieno[2,3-d]pyrimidin-4-amine] | C (C = 46-75% inhibition) | C (C = 46-75% inhibition) | C (C = 46-75% inhibition) | C (C = 46-75% inhibition) | 4 h | B (B = 26-45% inhibition) | B (B = 26-45% inhibition) | No findings of overt toxicity were observed | No changes | clear decrease | D (D = 76-100% inhibition) | C (C = 46-75% inhibition) | No findings of overt toxicity were observed | inhibition of Smad2 phosphorylation | No changes | D (D = 76-100% inhibition) | B (B = 26-45% inhibition) |  |  | 
2 | COc1cc(Nc2nc(-c3nccn3C)nc3sc(-c4ccn(C(C)C)n4)c(C)c23)ncn1 [Compound 19, 6-(1-Isopropyl-1H-pyrazol-3-yl)-N-(6-methoxypyrimidin-4-yl)-5-methyl-2-(1-methyl-1H-imidazol-2-yl)thieno[2,3-d]pyrimidin-4-amine] | C (C = 46-75% inhibition) | C (C = 46-75% inhibition) | B (B = 26-45% inhibition) | B (B = 26-45% inhibition) |  |  | D (D = 76-100% inhibition) |  |  |  | D (D = 76-100% inhibition) | D (D = 76-100% inhibition) |  |  |  | D (D = 76-100% inhibition) | C (C = 46-75% inhibition) | 76 to 100% | 76 to 100% | 76 to 100%
